How the values were obtained:
[1] = Compound toxicity, ATPLite total ATP levels; assay type: cell-based; conditions: human, HepAD38 cells; 15,000 cells/well, three days after compound addition; 50% reduction of total ATP levels relative to no drug controls
Protocol: Methods: HepAD38 cells are maintained as previously reported (Ladner et al, Antimicrob. Agents Chemother. 1997, […], 1715). Briefly, cells are passaged upon attaining confluency in DMEM/F12 media in the presence of 10% FBS, Penn/Strep, 250 μg/mL G418, and 1 ug/ml tetracycline. Novel compounds are screened by first washing cells three times with PBS to remove tetracycline, and plating in 96 well plates at 35,000 cells/well. Compounds dissolved in DMSO are then diluted 1:200 into wells containing cells. Five days after compound addition, material is harvested for analysis. For an extended 8 day analysis, cells are plated and treated as described above, but media and compound are refreshed on d2 and d5 post initial treatment.
Compound toxicity is evaluated by seeding cells at 15,000 cells/well and treating with compound as described above. Three days after compound addition, cells are treated with ATPLite reagent and compound concentrations that reduce total ATP levels in wells by 50% relative to no drug controls (CC50) are reported; CC50 ranges are as follows: A>30 μM; B 10-30 μM; C<10 μM.

HBV = test: HepAD38 antiviral assay: reduction of viral product accumulation (virion DNA by qPCR, HBsAg or HBeAg by ELISA); assay type: cell-based; conditions: Hepatitis B virus, 120 h; HepAD38 cells, five days after compound addition; 50% reduction of viral product accumulation relative to no drug controls; read-out: HepAD38 EC50
How it was run: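 Tetracycline-washed HepAD38 cells treated with compound (DMSO diluted 1:200) for 5 days, or 8 days with media and compound refreshed on d2 and d5. Virion DNA from lysates quantified by qPCR; HBsAg or HBeAg by ELISA. EC50 is the concentration giving 50% reduction versus no-drug controls, reported as ranges A<1 μM, B 1-10 μM, C>10 μM.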

Compound	CC50 at 3 days [1] [µM]	EC50 (HBV) [µM]
N#Cc1cc(-c2cnc(-c3ccc(Cl)c(S(=O)(=O)N4CCC(O)CC4)c3)[nH]2)ccc1F [Example 22]	> 30	< 1
O=S(=O)(c1cc(-c2nnc(-c3ccc(F)c(F)c3)[nH]2)ccc1Cl)N1CCC(O)CC1 [Example 23]	10 to 30	1 to 10
O=S(=O)(c1cc(-c2cc(-c3ccc(F)c(Br)c3)[nH]n2)ccc1Cl)N1CCC(O)CC1 [Example 24]	< 10	1 to 10
Cc1cc(-c2cc(-c3ccc(Cl)c(S(=O)(=O)N4CCC(O)CC4)c3)n[nH]2)ccc1F [Example 25]	10 to 30	1 to 10
O=S(=O)(c1cc(-c2ncc(-c3ccc(F)c(F)c3)o2)ccc1Cl)N1CCC(O)CC1 [Example 26]	> 30	> 10
N#Cc1cc(-c2cc(-c3ccc(Cl)c(S(=O)(=O)N4CCC(O)CC4)c3)n[nH]2)ccc1F [Example 27]	> 30	1 to 10
C#Cc1cc(-c2cc(-c3ccc(Cl)c(S(=O)(=O)N4CCC(O)CC4)c3)n[nH]2)ccc1F [Example 28]	< 10	< 1
O=S(=O)(c1cc(-c2cc(-c3ccc(F)c(Cl)c3)[nH]n2)ccc1Cl)N1CCC(O)CC1 [Example 29]	< 10	< 1
O=S(=O)(c1cc(-c2nc(-c3cc(F)c(F)c(F)c3)c[nH]2)ccc1Cl)N1CCC(O)CC1 [Example 30]	10 to 30	1 to 10
O=C1CCN(S(=O)(=O)c2cc(-c3ncc(-c4ccc(F)c(Br)c4)[nH]3)ccc2Cl)CC1 [Example 31]	10 to 30	1 to 10
CC1(O)CCN(S(=O)(=O)c2cc(-c3ncc(-c4ccc(F)c(Br)c4)[nH]3)ccc2Cl)CC1 [Example 32]	10 to 30	1 to 10
O=S(=O)(c1cc(-c2nc(-c3ccccn3)c[nH]2)ccc1Cl)N1CCC(O)CC1 [Example 33]	10 to 30	> 10
CC(=O)OC1CCN(S(=O)(=O)c2cc(-c3nc(-c4ccc(F)c(Br)c4)c[nH]3)ccc2Cl)CC1 [Example 35]	10 to 30	1 to 10
COC(=O)[C@@H]1CCCN1S(=O)(=O)c1cc(-c2ncc(-c3ccc(F)c(Br)c3)[nH]2)ccc1Cl [Example 36]	> 30	> 10
O=S(=O)(c1cc(-c2ncc(-c3ccc(F)c(Br)c3)[nH]2)ccc1Cl)N1CCCCC1 [Example 37]	< 10	< 1
O=S(=O)(NCCO)c1cc(-c2ncc(-c3ccc(F)c(Br)c3)[nH]2)ccc1Cl [Example 38]	10 to 30	< 1
COC1CCN(S(=O)(=O)c2cc(-c3ncc(-c4ccc(F)c(Br)c4)[nH]3)ccc2Cl)CC1 [Example 39]	10 to 30	< 1
O=S(=O)(c1cc(-c2nc(-c3ccc(F)cc3)c[nH]2)ccc1Cl)N1CCC(O)CC1 [Example 40]	> 30	1 to 10
CC(C)OC(=O)[C@@H](C)NS(=O)(=O)c1cc(-c2ncc(-c3ccc(F)c(Br)c3)[nH]2)ccc1Cl [Example 41]	> 30	1 to 10
O=S(=O)(c1cc(-c2ncc(-c3ccc(F)c(Br)c3)[nH]2)ccc1Cl)N1CCOCC1 [Example 42]	10 to 30	< 1
O=S(=O)(NCCCO)c1cc(-c2ncc(-c3ccc(F)c(Br)c3)[nH]2)ccc1Cl [Example 43]	10 to 30	< 1
O=S(=O)(c1cc(-c2ncc(-c3ccc(F)c(Br)c3)[nH]2)ccc1Cl)N1CCC(F)CC1 [Example 44]	< 10	< 1
Cc1cc(-c2cnc(-c3ccc(Cl)c(S(=O)(=O)N4CCC(O)CC4)c3)[nH]2)ccc1F [Example 45]	> 30	< 1
COc1cc(-c2cnc(-c3ccc(Cl)c(S(=O)(=O)N4CCC(O)CC4)c3)[nH]2)ccc1F [Example 46]	> 30	< 1

Compound	CC50 at 3 days [1] [µM]	EC50 (HBV) [µM]
N#Cc1ccc(-c2cnc(-c3ccc(Cl)c(S(=O)(=O)N4CCC(O)CC4)c3)[nH]2)cc1F [Example 47]	> 30	< 1
O=S(=O)(c1cc(-c2ncc(-c3ccc(F)c(C4CC4)c3)[nH]2)ccc1Cl)N1CCC(O)CC1 [Example 48]	10 to 30	< 1
O=S(=O)(c1cc(-c2ncc(-c3cccc(F)c3)[nH]2)ccc1Cl)N1CCC(O)CC1 [Example 49]	10 to 30	< 1
O=S(=O)(c1cc(-c2ncc(-c3cccnc3)[nH]2)ccc1Cl)N1CCC(O)CC1 [Example 50]	> 30	1 to 10
O=S(=O)(c1cc(-c2nc(-c3ccncc3)c[nH]2)ccc1Cl)N1CCC(O)CC1 [Example 51]	> 30	> 10
O=S(=O)(c1cc(-c2nc(-c3ccc(Cl)cc3)c[nH]2)ccc1Cl)N1CCC(O)CC1 [Example 52]	10 to 30	< 1
O=S(=O)(c1cc(-c2nc(-c3cccc(Cl)c3)c[nH]2)ccc1Cl)N1CCC(O)CC1 [Example 53]	10 to 30	< 1
O=S(=O)(c1cc(-c2nc(-c3cccc(Br)c3)c[nH]2)ccc1Cl)N1CCC(O)CC1 [Example 54]	> 30	< 1
O=S(=O)(c1cc(-c2nc(-c3ccc(F)c(C(F)(F)F)c3)c[nH]2)ccc1Cl)N1CCC(O)CC1 [Example 55]	10 to 30	< 1
CC(C)(C)OC(=O)NCCCNS(=O)(=O)c1cc(-c2ncc(-c3ccc(F)c(Br)c3)[nH]2)ccc1Cl [Example 56]	< 10	< 1
CN(C)S(=O)(=O)c1cc(-c2ncc(-c3ccc(F)c(Br)c3)[nH]2)ccc1Cl [Example 57]	10 to 30	1 to 10
COC(=O)[C@H]1CCN(S(=O)(=O)c2cc(-c3ncc(-c4ccc(F)c(Br)c4)[nH]3)ccc2Cl)C1 [Example 58]	> 30	1 to 10
O=C1CCN(S(=O)(=O)c2cc(-c3nc(-c4ccc(Br)c(F)c4)c[nH]3)ccc2Cl)CC1 [Example 59]	10 to 30	< 1
COC(=O)[C@@H](NS(=O)(=O)c1cc(-c2ncc(-c3ccc(F)c(Br)c3)[nH]2)ccc1Cl)C(C)C [Example 60]	10 to 30	1 to 10
NCCCNS(=O)(=O)c1cc(-c2ncc(-c3ccc(F)c(Br)c3)[nH]2)ccc1Cl [Example 61]	< 10	1 to 10
COC(=O)NCCCNS(=O)(=O)c1cc(-c2ncc(-c3ccc(F)c(Br)c3)[nH]2)ccc1Cl [Example 62]	10 to 30	1 to 10
COC(=O)NCCCNS(=O)(=O)c1cc(-c2ncc(-c3ccc(F)c(Br)c3)n2C(=O)OC)ccc1Cl [Example 63]	10 to 30	1 to 10
O=C1CN(S(=O)(=O)c2cc(-c3ncc(-c4ccc(F)c(Br)c4)[nH]3)ccc2Cl)CCN1 [Example 64]	10 to 30	1 to 10
O=S(=O)(c1cc(-c2ncc(-c3ccc(F)c(O)c3)[nH]2)ccc1Cl)N1CCC(O)CC1 [Example 65]	> 30	> 10
O=S(=O)(c1cc(-c2nc(-c3ccc(Br)cc3)c[nH]2)ccc1Cl)N1CCC(O)CC1 [Example 66]	10 to 30	< 1
Cc1cc(F)ccc1-c1c[nH]c(-c2ccc(Cl)c(S(=O)(=O)N3CCC(O)CC3)c2)n1 [Example 67]	10 to 30	1 to 10
O=S(=O)(c1cc(-c2nc(-c3ccccc3F)c[nH]2)ccc1Cl)N1CCC(O)CC1 [Example 68]	> 30	1 to 10
O=S(=O)(c1cc(-c2nc(-c3ccsc3)c[nH]2)ccc1Cl)N1CCC(O)CC1 [Example 69]	> 30	1 to 10
